Assay results reported in patent publication US6472348B1, “Pyridone derivatives and herbicides” (Kumiai Chemical Industry Co., Ltd., priority 1996, dated 2002).

Key:
corn (Ze) = test: Test Example 7: crop plant selectivity by upland field soil treatment (corn), phytotoxicity; type: in vivo; set-up: scale not given here; conditions: 21st day after application
How it was run: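 Values are ratings of herbicidal effect and phytotoxicity on a standard scale, taken 21 days after application. Test species were sown together with corn in sand-filled pots, covered with soil, and grown in a greenhouse.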

cotton (Go) = test: Test Example 4: crop plant selectivity by upland field soil treatment (cotton), phytotoxicity; type: in vivo; set-up: scale not given here; conditions: evaluated 21st day after application
How it was run: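 Upland soil treatment: crop and weed seeds in sand pots under a soil cover, compound applied to soil, greenhouse-grown, rated visually 21 d later.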

wheat (Tr) = test: Test Example 9: crop plant selectivity by upland field foliage treatment (wheat), phytotoxicity; conditions: dose 1.6 g ai/10a, 14th day after treatment;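 note: grade of crop injury; 5 = at least 90%; 4 = 70 to 90%; 3 = 50 to 70%; 2 = 30 to 50%; 1 = 10 to 30%; 0 = under 10%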
How it was run: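 Read-out: weed control and wheat injury, rated by a defined scoring standard 14 days after foliar application.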

barnyardgrass (Ec) [1] = test: Test Example 1: herbicidal effects by paddy field soil treatment; type: in vivo; conditions: 100 g of the active ingredient per 10 ares, 21st day after the application, index 0-5 of Table 47;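 note: grade of growth control; 5 = at least 90%; 4 = 70 to 90%; 3 = 50 to 70%; 2 = 30 to 50%; 1 = 10 to 30%; 0 = under 10%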
How it was run: (§1)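 Scoring of herbicidal effect came 21 days after application of 100 g active ingredient per 10 ares to flooded (3 cm) paddy-soil pots sown with barnyardgrass, monochoria and bulrush, kept in a greenhouse.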

monochoria (Mo) = test: as above; type: in vivo; conditions: 100 g of the active ingredient per 10 ares, 21st day after the application, index 0-5 of Table 47;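 note: grade of growth control; 5 = at least 90%; 4 = 70 to 90%; 3 = 50 to 70%; 2 = 30 to 50%; 1 = 10 to 30%; 0 = under 10%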
How it was run: as §1

bulrush (Sc) = test: as above; type: in vivo; conditions: 100 g of the active ingredient per 10 ares, 21st day after the application, index 0-5 of Table 47;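 note: grade of growth control; 5 = at least 90%; 4 = 70 to 90%; 3 = 50 to 70%; 2 = 30 to 50%; 1 = 10 to 30%; 0 = under 10%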
How it was run: as §1

soybean (Gl) = test: Test Example 6: crop plant selectivity by upland field soil treatment (soybean), phytotoxicity; type: in vivo; set-up: scale not given here; conditions: 21st day after application
How it was run: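 Seeds are sown in sand and covered with soil. The soil is treated with test compound. Pots are kept in a greenhouse. Weed control and soybean damage are rated visually 21 days after application.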

barnyardgrass (Ec) [2] = test: Test Example 3: herbicidal effects by upland field foliage treatment; type: in vivo; set-up: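 grade of growth control; 5 = at least 90%; 4 = 70 to 90%; 3 = 50 to 70%; 2 = 30 to 50%; 1 = 10 to 30%; 0 = under 10%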
How it was run: (§2)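 Using plants cultured for 2 weeks in a greenhouse from seed sown in soil-covered sand (pots 120 cm^2), the compounds were applied to foliage, and weed control was graded by standard criteria 14 days thereafter.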

slender amaranth (Am) = test: as above; type: in vivo; set-up: scale not given here
How it was run: as §2

[3] = test system: common lambsquarters (Ch); test: as above; type: in vivo; set-up: scale not given here
How it was run: as §2

Diaitaria ciliaris (Di) = test: as above; type: in vivo; set-up: scale not given here
How it was run: as §2

rice flatsedge (Ci) = test: as above; type: in vivo; set-up: scale not given here
How it was run: as §2

[4] = 100 g of the active ingredient per 10 ares, evaluated on the 14th day after treatment
[5] = 100 g active ingredient per 10 ares, evaluated 14th day after treatment

C#CCOc1cc(-c2ccc(C(F)(F)F)n(C)c2=O)c(Cl)cc1Cl [1-30]
5: Herbicidal effects Ec (barnyardgrass (Ec) [1]) | Herbicidal effects Mo (monochoria (Mo)) | Herbicidal effects Sc (bulrush (Sc)) | Herbicidal effects Ec (barnyardgrass (Ec) [2]; [4]) | Herbicidal effects Am (slender amaranth (Am); [4]) | Herbicidal effects Ch [3, 4] | Herbicidal effects Di (Diaitaria ciliaris (Di); [4]) | Herbicidal effects Ci (rice flatsedge (Ci); [4])
0: Phytotoxicity Go (cotton (Go); dose 1.6 g ai/10 a)
2: Phytotoxicity Ze (corn (Ze); dose 6.3 g ai/10a) | Phytotoxicity Tr (wheat (Tr))
1: Phytotoxicity Ze (corn (Ze); dose 1.6 g ai/10a) | Phytotoxicity Go (cotton (Go); dose 6.3 g ai/10 a) | Phytotoxicity Gl (soybean (Gl); dose 1.6 g ai/10a)

CC(C)Sc1cc(-c2ccc(C(F)(F)F)n(C)c2=O)c(F)cc1Cl [1-43]
1: Phytotoxicity Ze (corn (Ze); dose 6.3 g ai/10a) | Phytotoxicity Gl (soybean (Gl); dose 6.3 g ai/10a)
5: Herbicidal effects Ec (barnyardgrass (Ec) [1]) | Herbicidal effects Mo (monochoria (Mo)) | Herbicidal effects Sc (bulrush (Sc)) | Herbicidal effects Ec (barnyardgrass (Ec) [2]; [4]) | Herbicidal effects Am (slender amaranth (Am); [4]) | Herbicidal effects Ch [3, 4] | Herbicidal effects Di (Diaitaria ciliaris (Di); [4]) | Herbicidal effects Ci (rice flatsedge (Ci); [4])
2: Phytotoxicity Tr (wheat (Tr))
0: Phytotoxicity Go (cotton (Go); dose 6.3 g ai/10 a)

C#CCSc1cc(-c2ccc(C(F)(F)F)n(C)c2=O)c(F)cc1Cl [1-44]
2: Phytotoxicity Tr (wheat (Tr))
1: Phytotoxicity Ze (corn (Ze); dose 6.3 g ai/10a) | Phytotoxicity Go (cotton (Go); dose 6.3 g ai/10 a) | Phytotoxicity Gl (soybean (Gl); dose 6.3 g ai/10a)
5: Herbicidal effects Ec (barnyardgrass (Ec) [1]) | Herbicidal effects Mo (monochoria (Mo)) | Herbicidal effects Sc (bulrush (Sc)) | Herbicidal effects Ec (barnyardgrass (Ec) [2]; [4]) | Herbicidal effects Am (slender amaranth (Am); [4]) | Herbicidal effects Ch [3, 4] | Herbicidal effects Di (Diaitaria ciliaris (Di); [4]) | Herbicidal effects Ci (rice flatsedge (Ci); [4])

CCOC(=O)c1cc(-c2ccc(C(F)(F)F)n(C)c2=O)c(F)cc1Cl [1-65]
2: Phytotoxicity Ze (corn (Ze); dose 6.3 g ai/10a) | Phytotoxicity Tr (wheat (Tr))
0: Phytotoxicity Go (cotton (Go); dose 1.6 g ai/10 a) | Phytotoxicity Go (cotton (Go); dose 6.3 g ai/10 a)
5: Herbicidal effects Ec (barnyardgrass (Ec) [1]) | Herbicidal effects Mo (monochoria (Mo)) | Herbicidal effects Sc (bulrush (Sc)) | Herbicidal effects Ec (barnyardgrass (Ec) [2]; [4]) | Herbicidal effects Am (slender amaranth (Am); [4]) | Herbicidal effects Ch [3, 4] | Herbicidal effects Di (Diaitaria ciliaris (Di); [4]) | Herbicidal effects Ci (rice flatsedge (Ci); [4])
1: Phytotoxicity Ze (corn (Ze); dose 1.6 g ai/10a) | Phytotoxicity Gl (soybean (Gl); dose 1.6 g ai/10a) | Phytotoxicity Gl (soybean (Gl); dose 6.3 g ai/10a)

COCSc1cc(-c2ccc(C(F)(F)F)n(C)c2=O)c(F)cc1Cl [1-91]
0: Phytotoxicity Go (cotton (Go); dose 1.6 g ai/10 a) | Phytotoxicity Gl (soybean (Gl); dose 1.6 g ai/10a)
1: Phytotoxicity Ze (corn (Ze); dose 1.6 g ai/10a) | Phytotoxicity Go (cotton (Go); dose 6.3 g ai/10 a) | Phytotoxicity Gl (soybean (Gl); dose 6.3 g ai/10a)
5: Herbicidal effects Ec (barnyardgrass (Ec) [1]) | Herbicidal effects Mo (monochoria (Mo)) | Herbicidal effects Sc (bulrush (Sc)) | Herbicidal effects Ec (barnyardgrass (Ec) [2]; [4]) | Herbicidal effects Am (slender amaranth (Am); [4]) | Herbicidal effects Ch [3, 4] | Herbicidal effects Di (Diaitaria ciliaris (Di); [4]) | Herbicidal effects Ci (rice flatsedge (Ci); [4])
2: Phytotoxicity Ze (corn (Ze); dose 6.3 g ai/10a) | Phytotoxicity Tr (wheat (Tr))

Cn1c(C(F)(F)F)ccc(-c2cc(OCC3CC3)c(Cl)cc2F)c1=O [1-160]
2: Phytotoxicity Tr (wheat (Tr))
5: Herbicidal effects Ec (barnyardgrass (Ec) [1]) | Herbicidal effects Mo (monochoria (Mo)) | Herbicidal effects Sc (bulrush (Sc)) | Herbicidal effects Ec (barnyardgrass (Ec) [2]; [4]) | Herbicidal effects Am (slender amaranth (Am); [4]) | Herbicidal effects Ch [3, 4] | Herbicidal effects Di (Diaitaria ciliaris (Di); [4]) | Herbicidal effects Ci (rice flatsedge (Ci); [4])
1: Phytotoxicity Ze (corn (Ze); dose 6.3 g ai/10a) | Phytotoxicity Go (cotton (Go); dose 6.3 g ai/10 a) | Phytotoxicity Gl (soybean (Gl); dose 6.3 g ai/10a)

Cn1c(C(F)(F)F)ccc(-c2cc(OCCCl)c(Cl)cc2F)c1=O [1-171]
1: Phytotoxicity Gl (soybean (Gl); dose 6.3 g ai/10a)
2: Phytotoxicity Tr (wheat (Tr))
0: Phytotoxicity Ze (corn (Ze); dose 6.3 g ai/10a) | Phytotoxicity Go (cotton (Go); dose 6.3 g ai/10 a)
5: Herbicidal effects Ec (barnyardgrass (Ec) [1]) | Herbicidal effects Mo (monochoria (Mo)) | Herbicidal effects Sc (bulrush (Sc)) | Herbicidal effects Ec (barnyardgrass (Ec) [2]; [4]) | Herbicidal effects Am (slender amaranth (Am); [4]) | Herbicidal effects Ch [3, 4] | Herbicidal effects Di (Diaitaria ciliaris (Di); [4]) | Herbicidal effects Ci (rice flatsedge (Ci); [4])

C#CC(C)Oc1cc(Cl)cc(F)c1-c1ccc(C(F)(F)F)n(C)c1=O (centres unmarked) [1′-5]
5: Herbicidal effects Ec (barnyardgrass (Ec) [1]) | Herbicidal effects Mo (monochoria (Mo)) | Herbicidal effects Sc (bulrush (Sc)) | Herbicidal effects Ec (barnyardgrass (Ec) [2]; [5]) | Herbicidal effects Am (slender amaranth (Am); [5]) | Herbicidal effects Ch [3, 5] | Herbicidal effects Di (Diaitaria ciliaris (Di); [5]) | Herbicidal effects Ci (rice flatsedge (Ci); [5])
1: Phytotoxicity Ze (corn (Ze); dose 1.6 g ai/10a) | Phytotoxicity Tr (wheat (Tr)) | Phytotoxicity Gl (soybean (Gl); dose 1.6 g ai/10a)
0: Phytotoxicity Go (cotton (Go); dose 1.6 g ai/10 a) | Phytotoxicity Go (cotton (Go); dose 6.3 g ai/10 a)
2: Phytotoxicity Ze (corn (Ze); dose 6.3 g ai/10a) | Phytotoxicity Gl (soybean (Gl); dose 6.3 g ai/10a)

C=CC(C)Oc1cc(-c2ccc(C(F)(F)F)n(C)c2=O)c(F)cc1Cl (centres unmarked) [Compound 1-182]
0: Phytotoxicity Go (cotton (Go); dose 6.3 g ai/10 a)
1: Phytotoxicity Ze (corn (Ze); dose 6.3 g ai/10a) | Phytotoxicity Tr (wheat (Tr)) | Phytotoxicity Gl (soybean (Gl); dose 6.3 g ai/10a)
5: Herbicidal effects Ec (barnyardgrass (Ec) [1]) | Herbicidal effects Mo (monochoria (Mo)) | Herbicidal effects Sc (bulrush (Sc)) | Herbicidal effects Ec (barnyardgrass (Ec) [2]; [4]) | Herbicidal effects Am (slender amaranth (Am); [4]) | Herbicidal effects Ch [3, 4] | Herbicidal effects Di (Diaitaria ciliaris (Di); [4]) | Herbicidal effects Ci (rice flatsedge (Ci); [4])

CCON=Cc1cc(-c2ccc(C(F)(F)F)n(C)c2=O)c(F)cc1Cl [Compound 1-187]
2: Phytotoxicity Tr (wheat (Tr))
0: Phytotoxicity Go (cotton (Go); dose 6.3 g ai/10 a)
5: Herbicidal effects Ec (barnyardgrass (Ec) [1]) | Herbicidal effects Mo (monochoria (Mo)) | Herbicidal effects Sc (bulrush (Sc)) | Herbicidal effects Ec (barnyardgrass (Ec) [2]; [5]) | Herbicidal effects Am (slender amaranth (Am); [5]) | Herbicidal effects Ch [3, 5] | Herbicidal effects Di (Diaitaria ciliaris (Di); [5]) | Herbicidal effects Ci (rice flatsedge (Ci); [5])
1: Phytotoxicity Ze (corn (Ze); dose 6.3 g ai/10a) | Phytotoxicity Gl (soybean (Gl); dose 6.3 g ai/10a)
